pKd: −log10 of the molar value.
Legend:
Test in all cases: KINOMEscan kinase binding assay
[1] = system: PYK2; conditions: at 1 μM
Procedure, shortened: (§1)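 Steps: biotinylated ligand loaded onto streptavidin beads (30 min RT), then biotin-blocked; kinase, beads and compound combined in SeaBlock/PBS/Tween/DTT buffer for 1 h RT; beads washed; kinase eluted with 0.5 μM non-biotinylated ligand; eluate quantified by qPCR.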

[2] = system: EPHA4; conditions: at 1 μM
Procedure, shortened: (§2)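 qPCR read-out of kinase retained on ligand-coated streptavidin beads. Binding buffer: 20% SeaBlock, 0.17×PBS, 0.05% Tween 20, 6 mM DTT; 1 h RT with shaking. % Ctrl = (test − positive control)/(negative control − positive control)×100; lower values mean stronger binding.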

[3] = system: TNK2; conditions: at 1 μM
Procedure, shortened: as §1

[4] = system: ALK(L1196M); conditions: at 1 μM
Procedure, shortened: as §1

[5] = system: EGFR(G719S); conditions: at 1 μM
Procedure, shortened: as §1

[6] = system: EPHB2; conditions: at 1 μM
Procedure, shortened: as §1

[7] = system: FRK; conditions: at 1 μM
Procedure, shortened: as §1

[8] = system: JAK1(JH1domain-catalytic)
Procedure, shortened: as §2

[9] = system: FLT3(D835Y); conditions: at 1 μM
Procedure, shortened: as §1

[10] = system: INSR; conditions: at 1 μM
Procedure, shortened: as §1

[11] = system: ROS1; conditions: at 1 μM
Procedure, shortened: as §1

[12] = system: EPHB4; conditions: at 1 μM
Procedure, shortened: as §1

[13] = system: ABL1(F3171)-phosphorylated; conditions: at 1 μM
Procedure, shortened: as §1

[14] = system: SRMS; conditions: at 1 μM
Procedure, shortened: as §1

[15] = system: CSF1R; conditions: at 1 μM
Procedure, shortened: as §1

[16] = system: FLT3-autoinhibited; conditions: at 1 μM
Procedure, shortened: as §1

[17] = system: KIT-autoinhibited; conditions: at 1 μM
Procedure, shortened: as §1

[18] = system: FYN; conditions: at 1 μM
Procedure, shortened: as §1

[19] = system: ERBB3; conditions: at 1 μM
Procedure, shortened: as §1

[20] = system: MET(M1250T); conditions: at 1 μM
Procedure, shortened: as §1

[21] = system: ABL1(H396P)-nonphosphorylated; conditions: at 1 μM
Procedure, shortened: as §1

[22] = system: JAK2(JH1domain-catalytic)
Procedure, shortened: as §2

[23] = system: MERTK; conditions: at 1 μM
Procedure, shortened: as §1

[24] = system: FGFR2; conditions: at 1 μM
Procedure, shortened: as §1

[25] = system: LCK; conditions: at 1 μM
Procedure, shortened: as §1

[26] = system: FLT3(R834Q); conditions: at 1 μM
Procedure, shortened: as §1

[27] = system: EGFR(T790M); conditions: at 1 μM
Procedure, shortened: as §1

[28] = system: HCK; conditions: at 1 μM
Procedure, shortened: as §1

[29] = system: MUSK; conditions: at 1 μM
Procedure, shortened: as §1

[30] = system: ABL1(F317L)-nonphosphorylated; conditions: at 1 μM
Procedure, shortened: as §1

[31] = system: RET(V804M); conditions: at 1 μM
Procedure, shortened: as §1

[32] = system: EGFR(G719C); conditions: at 1 μM
Procedure, shortened: as §1

[33] = system: IGF1R; conditions: at 1 μM
Procedure, shortened: as §1

[34] = system: PDGFRA; conditions: at 1 μM
Procedure, shortened: as §1

[35] = system: JAK3(JH1domain-catalytic)
Procedure, shortened: as §2

[36] = system: EPHA2; conditions: at 1 μM
Procedure, shortened: as §2

[37] = system: TRKA; conditions: at 1 μM
Procedure, shortened: as §1

[38] = system: TXK; conditions: at 1 μM
Procedure, shortened: as §1

[39] = system: FLT3(K663Q); conditions: at 1 μM
Procedure, shortened: as §1

[40] = system: ALK(C1156Y); conditions: at 1 μM
Procedure, shortened: as §1

## Cc1cc2c([nH]1)/C=C1\C(=O)Nc3c(Cl)cc(cc31)-c1cn(C)nc1COC[C@@H](C)N(C)C2=O [Cpd. 5, [3a(4)Z,10R]-20-chloro-6,9,10,15-tetramethyl-10,11,13,15-tetrahydro-2H-1,17-(ethanediylidene)pyrazolo[4,3-m]dipyrrolo[3,2-f:3′,4′-i][1,4]oxazacyclopentadecine-3,8(5H,9H)-dione]
[1]
  % Ctrl: 83%
[2]
  % Ctrl: 93%
[3]
  % Ctrl: 87%
[4]
  % Ctrl: 86%
[5]
  % Ctrl: 98%
[6]
  % Ctrl: 90%
[7]
  % Ctrl: 80%
[8]; JAK1(JH1domain-catalytic), at 1 μM
  % Ctrl: 100%
[8]; read-out: JAK1(JH1 domain-catalytic) Kd
  pKd: < 5.00
[9]
  % Ctrl: 100%
[10]
  % Ctrl: 94%
[11]
  % Ctrl: 69%
[12]
  % Ctrl: 91%
[13]
  % Ctrl: 97%
[14]
  % Ctrl: 61%
[15]
  % Ctrl: 96%
[16]
  % Ctrl: 87%
[17]
  % Ctrl: 83%
[18]
  % Ctrl: 77%
[19]
  % Ctrl: 71%
[20]
  % Ctrl: 100%
[21]
  % Ctrl: 98%
[22]; JAK2(JH1domain-catalytic), at 1 μM
  % Ctrl: 89%
[22]; read-out: JAK2(JH1 domain-catalytic) Kd
  pKd: < 5.00
[23]
  % Ctrl: 86%
[24]
  % Ctrl: 100%
[25]
  % Ctrl: 94%
[26]
  % Ctrl: 98%
[27]
  % Ctrl: 80%
[28]
  % Ctrl: 100%
[29]
  % Ctrl: 100%
[30]
  % Ctrl: 86%
[31]
  % Ctrl: 90%
[32]
  % Ctrl: 100%
[33]
  % Ctrl: 98%
[34]
  % Ctrl: 95%
[35]; JAK3(JH1domain-catalytic), at 1 μM
  % Ctrl: 79%
[35]; read-out: JAK3(JH1 domain-catalytic) Kd
  pKd: < 5.00
[36]
  % Ctrl: 100%
[37]
  % Ctrl: 53%
[38]
  % Ctrl: 94%
[39]
  % Ctrl: 87%
[40]
  % Ctrl: 90%

Source: US20250074920A1, “MACROCYCLIC COMPOUNDS AND USE AS KINASE INHIBITORS” (BLOSSOMHILL THERAPEUTICS, INC., priority 2022, published 2025)
